{"source": "patent US4443436A", "about": "“C-20-Modified macrolide derivatives of the macrolide antibiotics tylosin, desmycosin, macrocin, and lactenocin” (Eli Lilly and Company, priority 1982, dated 1984)", "key": {"[1]": {"system": "Staphylococcus aureus X1.1", "experiment": "MIC, standard agar-dilution assay, Staphylococcus aureus X1.1", "assay_type": "cell-based"}, "[2]": {"system": "Staphylococcus aureus", "experiment": "MIC, broth-dilution microtiter test, Staphylococcus aureus", "assay_type": "cell-based", "excerpt": "(§1) The MIC's in Table X were obtained using conventional broth-dilution microtiter tests."}, "[3]": {"system": "Pasteurella hemolytica 22C", "experiment": "MIC, broth-dilution microtiter test, Pasteurella hemolytica 22C", "assay_type": "cell-based", "conditions": "Pasteurella hemolytica 22C, broth-dilution microtiter", "excerpt": "as §1"}, "[4]": {"system": "Streptococcus Group D X66", "experiment": "MIC, standard agar-dilution assay, Streptococcus Group D X66", "assay_type": "cell-based"}, "[5]": {"system": "Haemophilus influenzae R252", "experiment": "MIC, standard agar-dilution assay, Haemophilus influenzae R252", "assay_type": "cell-based"}, "[6]": {"system": "Mycoplasma hyorhinis", "experiment": "MIC, broth-dilution microtiter test, Mycoplasma hyorhinis", "assay_type": "cell-based", "excerpt": "as §1"}, "[7]": {"system": "Streptococcus pneumoniae Park I", "experiment": "microbe, parasite or virus in culture", "assay_type": "cell-based"}, "[8]": {"system": "Pasteurella multocida", "experiment": "Subcutaneous treatment of Pasteurella multocida-infected chicks", "assay_type": "in vivo, one-day-old chicks", "conditions": "30 mg/kg × 2, 1 and 4 hours post-challenge", "method": "Many of the C-20 modified derivatives of this invention have also shown in vivo antibacterial activity against infections induced by gram-negative bacteria. Tables XII and XIII summarize the results of tests in which illustrative compounds were evaluated against Pasteurella infection in one-day-old chicks. The compounds were administered parenterally or orally after challenge of the chicks with Pasteurella multocida (0.1 ml of a 10^-4 dilution of a twenty-hour tryptose broth culture of an avian P. multocida given subcutaneously). In these tests, unless indicated otherwise, all non-medicated infected chicks died within 24 hours of Pasteurella challenge. In the tests summarized in Table XII the compounds were administered by subcutaneous injection at a dosage of 30 mg/kg, 1 and 4 hours post-challenge of the chicks with P. multocida. In the test summarized in Table XIII the compounds were administered by gavage at 1 and 5 hours post-challenge of the chicks with P. multocida."}, "[9]": {"system": "Staphylococcus epidermidis EPI1", "experiment": "MIC, standard agar-dilution assay, Staphylococcus epidermidis EPI1", "assay_type": "cell-based"}, "[10]": {"system": "Pasteurella multocida 60A", "experiment": "MIC, broth-dilution microtiter test, Pasteurella multocida 60A", "assay_type": "cell-based", "conditions": "Pasteurella multocida 60A; avian isolate; broth-dilution microtiter; read-out: MIC", "excerpt": "as §1"}, "[11]": {"system": "Staphylococcus epidermidis EPI2", "experiment": "MIC, standard agar-dilution assay, Staphylococcus epidermidis EPI2", "assay_type": "cell-based", "conditions": "Staphylococcus epidermidis EPI2; agar dilution; read-out: MIC"}, "[12]": {"system": "Mycoplasma gallisepticum", "experiment": "MIC, broth-dilution microtiter test, Mycoplasma gallisepticum", "assay_type": "cell-based", "excerpt": "as §1"}, "[13]": {"system": "Mycoplasma hyopneumoniae", "experiment": "MIC, broth-dilution microtiter test, Mycoplasma hyopneumoniae", "assay_type": "cell-based", "conditions": "Mesomycoplasma hyopneumoniae; Mycoplasma hyopneumoniae; broth-dilution microtiter; read-out: MIC", "excerpt": "as §1"}, "[14]": {"system": "Staphylococcus aureus S13E", "experiment": "MIC, standard agar-dilution assay, Staphylococcus aureus S13E", "assay_type": "cell-based"}, "[15]": {"system": "Haemophilus influenzae Holt", "experiment": "MIC, standard agar-dilution assay, Haemophilus influenzae Holt", "assay_type": "cell-based"}, "[16]": {"system": "Streptococcus Group 9960", "experiment": "MIC, standard agar-dilution assay, Streptococcus Group 9960", "assay_type": "cell-based"}, "[17]": {"system": "Streptococcus bovis 80", "experiment": "MIC, broth-dilution microtiter test, Streptococcus bovis 80", "assay_type": "cell-based", "excerpt": "as §1"}, "[18]": {"system": "Pasteurella multocida 17E", "experiment": "MIC, broth-dilution microtiter test, Pasteurella multocida 17E", "assay_type": "cell-based", "conditions": "Pasteurella multocida 17E; bovine isolate; broth-dilution microtiter; read-out: MIC", "excerpt": "as §1"}, "[19]": {"system": "Mycoplasma gallisepticum", "experiment": "Antimycoplasmal activity in chicks infected with Mycoplasma gallisepticum", "assay_type": "in vivo, two- to three-day-old chicks", "conditions": "gavage five times, equivalent to 0.5 g/gal; for Number with Antibodies/Number Tested: antibodies to M. gallisepticum; for Number with Antibodies/Number Tested / Number with Air-Sac Lesions/Number Treated: 21 days post-infection", "method": "In these tests infections were induced in chicks by injecting 0.2 ml of a broth culture of M. gallisepticum into the abdominal air sac of two- to three-day-old chicks. The compounds were administered by gavage five times at a dose equivalent to 0.5 g/gal (on the day of challenge once prior to and once following the challenge, two times on the next day and once on the third day). Twenty-one days post-infection, the chicks were weighed, a blood sample was taken, and the chicks were sacrificed. The presence or absence of air-sac lesions was recorded."}, "[20]": {"system": "Streptococcus pyogenes C203", "experiment": "In vivo protection of mice experimentally infected with S. pyogenes C203", "conditions": "mice, doses given 1 and 4 hours post-infection; for ED50: Streptococcus pyogenes", "method": "The C-20 modified derivatives of this invention have shown in vivo antimicrobial activity against experimentally-induced infections in laboratory animals. When two doses of test compound were administered to mice experimentally infected with S. pyogenes C203, the activity observed was measured as an ED50 value [effective dose in mg/kg to protect 50% of the test animals: see Warren Wick, et al., J. Bacteriol. 81, 233-235 (1961)]."}, "[21]": {"system": "Mycoplasma synoviae", "experiment": "MIC, broth-dilution microtiter test, Mycoplasma synoviae", "assay_type": "cell-based", "conditions": "Mycoplasmopsis synoviae", "excerpt": "as §1"}, "[22]": {"system": "Streptococcus pyogenes C203", "experiment": "MIC, standard agar-dilution assay, Streptococcus pyogenes C203", "assay_type": "cell-based"}, "[23]": {"system": "Pasteurella multocida", "experiment": "Oral (gavage) treatment of Pasteurella multocida-infected chicks", "assay_type": "in vivo, one-day-old chicks", "method_in_brief": "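Dosing either by gavage at 1 and 5 h after infection, or subcutaneously at 30 mg/kg at 1 and 4 h after infection. Birds were day-old chicks infected s.c. with 0.1 ml of avian Pasteurella multocida culture (twenty-hour tryptose broth, diluted 10^-4).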"}, "[24]": {"system": "Staphylococcus aureus V41", "experiment": "MIC, standard agar-dilution assay, Staphylococcus aureus V41", "assay_type": "cell-based"}, "[25]": {"system": "Staphylococcus aureus X400", "experiment": "MIC, standard agar-dilution assay, Staphylococcus aureus X400", "assay_type": "cell-based"}, "[26]": {"experiment": "in vivo", "conditions": "dog, po, 15 mg/kg"}}, "note": "Where “and” joins values, the source holds several entries; their conditions need not be identical. Identical values can stand only once. Like-named read-outs stand apart in the source and are kept apart here."}
{"smiles": "CCC1OC(=O)CC(O)C(C)C(OC2OC(C)C(O)C(N(C)C)C2O)C(CC2Nc3ccccc3S2)CC(C)C(=O)C=CC(C)=CC1COC1OC(C)C(O)C(OC)C1OC", "note": "(stereo not shown) [Compound 75]", "values": [{"measurement": "MIC", "setting": "[1]; Staphylococcus aureus, X1.1", "value": 0.25, "unit": "mg/L"}, {"measurement": "MIC", "setting": "[2]", "value": 0.78, "unit": "mg/L"}, {"measurement": "MIC", "setting": "[3]; read-out: MIC", "value": 25, "unit": "mg/L"}, {"measurement": "MIC", "setting": "[4]", "value": 2, "unit": "mg/L"}, {"measurement": "MIC", "setting": "[5]; Haemophilus influenzae, R252", "value": 16, "unit": "mg/L"}, {"measurement": "MIC", "setting": "[6]; Mycoplasma", "value": 50, "unit": "mg/L"}, {"measurement": "MIC", "setting": "[7]; Streptococcus pneumoniae", "value": 0.25, "unit": "mg/L"}, {"measurement": "Number of Deaths/Number Treated", "setting": "[8]", "value": "4/10"}, {"measurement": "MIC", "setting": "[9]; Staphylococcus epidermidis, EPI1", "value": 0.25, "unit": "mg/L"}, {"measurement": "MIC", "setting": "[10]", "value": 25, "unit": "mg/L"}, {"measurement": "MIC", "setting": "[11]", "value": 0.12, "unit": "mg/L"}, {"measurement": "MIC", "setting": "[12]; Mycoplasmoides gallisepticum", "value": 1.56, "unit": "mg/L"}, {"measurement": "MIC", "setting": "[13]", "value": 0.19, "unit": "mg/L"}, {"measurement": "MIC", "setting": "[14]; Staphylococcus aureus, S13E", "value": 0.25, "unit": "mg/L"}, {"measurement": "MIC", "setting": "[15]; Haemophilus influenzae", "value": 16, "unit": "mg/L"}, {"measurement": "MIC", "setting": "[16]; GROUP9960", "value": 2, "unit": "mg/L"}, {"measurement": "MIC", "setting": "[17]; Streptococcus equinus, 80", "value": 3.12, "unit": "mg/L"}, {"measurement": "MIC", "setting": "[18]", "value": 25, "unit": "mg/L"}, {"measurement": "Number with Antibodies/Number Tested", "setting": "[19]", "value": "9/9"}, {"measurement": "Mortality", "setting": "[19]", "value": "1/10"}, {"measurement": "Number with Air-Sac Lesions/Number Treated", "setting": "[19]", "value": "3/10"}, {"measurement": "ED50", "setting": "[20]; C203, sc, subcutaneous, read-out: ED50, Subcutaneous", "value": 1.7, "unit": "mg/kg"}, {"measurement": "ED50", "setting": "[20]; C203, oral, read-out: ED50, Oral", "value": 30, "unit": "mg/kg"}, {"measurement": "MIC", "setting": "[21]", "value": 1.56, "unit": "mg/L"}, {"measurement": "MIC", "setting": "[22]; Streptococcus pyogenes, C203", "value": 0.5, "unit": "mg/L"}, {"measurement": "Number of Deaths/Number tested", "setting": "[23]; 1.0 g/gal equivalent", "value": "6/9"}, {"measurement": "Number of Deaths/Number tested", "setting": "[23]; 2.0 g/gal equivalent", "value": "3/9 and 4/10"}, {"measurement": "MIC", "setting": "[24]; Staphylococcus aureus, V41", "value": 0.25, "unit": "mg/L"}, {"measurement": "MIC", "setting": "[25]; Staphylococcus aureus, X400", "value": 0.5, "unit": "mg/L"}]}
{"smiles": "CCC1OC(=O)CC(O)C(C)C(OC2OC(C)C(O)C(N(C)C)C2O)C(CCN=[N+]=[N-])CC(C)C(=O)C=CC(C)=CC1COC1OC(C)C(O)C(OC)C1OC", "note": "(stereo not shown) [Compound 44, 20-DH-DO-20-Azidodesmycosin]", "values": [{"measurement": "MIC", "setting": "[1]; Staphylococcus aureus X1.1, agar dilution", "value": 0.12, "unit": "mg/L"}, {"measurement": "MIC", "setting": "[2]; broth-dilution microtiter", "value": 0.39, "unit": "mg/L"}, {"measurement": "MIC", "setting": "[3]", "value": 12.5, "unit": "mg/L"}, {"measurement": "MIC", "setting": "[4]; Streptococcus Group D X66, agar dilution", "value": 4, "unit": "mg/L"}, {"measurement": "MIC", "setting": "[5]; Haemophilus influenzae R252, ampicillin-resistant strain, agar dilution", "value": 4, "unit": "mg/L"}, {"measurement": "MIC", "setting": "[6]; Mycoplasma hyorhinis, broth-dilution microtiter", "value": 50, "unit": "mg/L"}, {"measurement": "MIC", "setting": "[7]; Streptococcus pneumoniae Park I, agar dilution", "value": 2, "unit": "mg/L"}, {"measurement": "Number of Deaths/Number Treated", "setting": "[8]", "value": "9/10"}, {"measurement": "MIC", "setting": "[9]; Staphylococcus epidermidis EPI1, agar dilution", "value": 0.12, "unit": "mg/L"}, {"measurement": "MIC", "setting": "[12]; Mycoplasma gallisepticum, broth-dilution microtiter", "value": 0.39, "unit": "mg/L"}, {"measurement": "MIC", "setting": "[14]; Staphylococcus aureus S13E, agar dilution", "value": 0.12, "unit": "mg/L"}, {"measurement": "MIC", "setting": "[15]; Haemophilus influenzae Holt, ampicillin-sensitive strain, agar dilution", "value": 16, "unit": "mg/L"}, {"measurement": "MIC", "setting": "[16]; Streptococcus Group 9960, agar dilution", "value": 8, "unit": "mg/L"}, {"measurement": "MIC", "setting": "[17]; Streptococcus bovis 80, broth-dilution microtiter", "value": 6.25, "unit": "mg/L"}, {"measurement": "Number with Antibodies/Number Tested", "setting": "[19]", "value": "9/10"}, {"measurement": "Mortality", "setting": "[19]", "value": "0/10"}, {"measurement": "Number with Air-Sac Lesions/Number Treated", "setting": "[19]", "value": "7/10"}, {"measurement": "ED50, Oral", "setting": "[20]; oral", "value": 13, "unit": "mg/kg × 2"}, {"measurement": "ED50, Subcutaneous", "setting": "[20]; subcutaneous", "value": 3.8, "unit": "mg/kg × 2"}, {"measurement": "MIC", "setting": "[22]; Streptococcus pyogenes C203, agar dilution", "value": 0.25, "unit": "mg/L"}, {"measurement": "MIC", "setting": "[24]; Staphylococcus aureus V41, penicillin-resistant strain, agar dilution", "value": 0.12, "unit": "mg/L"}, {"measurement": "MIC", "setting": "[25]; Staphylococcus aureus X400, methicillin-resistant strain, agar dilution", "value": 0.25, "unit": "mg/L"}]}
{"smiles": "CCC1OC(=O)CC(O)C(C)C(OC2OC(C)C(O)C(N(C)C)C2O)C(CC=O)CC(C)C(=O)C=CC(C)=CC1COC1OC(C)C(O)C(OC)C1OC", "note": "(stereo not shown) [desmycosin]", "values": [{"measurement": "Cmax", "setting": "[26]", "value": 0.5, "unit": "µg/mL"}]}
